Assay [1] concerns the target T1, human A2a adenosine receptor (Homo sapiens, UniProt P29274).
T1 construct: purchased PerkinElmer RB-HA2a; host or cells: HEK293
Put plainly: Ligand Binding Assay for Adenosine A2a Receptor (A2A-B). Conditions: HEK293 plasma membrane, radioligand [3H]CGS21680. The procedure:
Ligand Binding Assay for Adenosine A2a Receptor
Ligand binding assay of adenosine A2a receptor was performed using plasma membrane of HEK293 cells containing human A2a adenosine receptor (PerkinElmer, RB-HA2a) and radioligand [^3H]CGS21680 (PerkinElmer, NET 1021). Assay was set up in 96-well polypropylene plate in total volume of 200 μL by sequentially adding 20 μL 1:20 diluted membrane, 130 μL assay buffer (50 mM Tris.HCl, pH7.4 10 mM MgCl2, 1 mM EDTA) containing [^3H] CGS21680, 50 μL diluted compound (4×) or vehicle control in assay buffer. Nonspecific binding was determined by […] NECA. Reaction was carried out at room temperature for 2 hours before filtering through 96-well GF/C filter plate pre-soaked in 50 mM Tris.HCl, pH7.4 containing 0.3% polyethylenimine. Plates were then washed 5 times with cold 50 mM Tris.HCl, pH7.4, dried and sealed at the bottom. Microscintillation fluid 30 μL was added to each well and the top sealed. Plates were counted on Packard Topcount for [^3H]. Data was analyzed in Microsoft Excel and GraphPad Prism programs. (Varani, K.; Gessi, S.; Dalpiaz, A.; Borea, P. A. British Journal of Pharmacology, 1996, 117, 1693)

The target of assay [2] is T2, human adenosine A1 receptor (Homo sapiens, UniProt P30542).
T2 construct: expressed in transfected cells; host or cells: CHO-K1
T2 sequence (P30542 1-326): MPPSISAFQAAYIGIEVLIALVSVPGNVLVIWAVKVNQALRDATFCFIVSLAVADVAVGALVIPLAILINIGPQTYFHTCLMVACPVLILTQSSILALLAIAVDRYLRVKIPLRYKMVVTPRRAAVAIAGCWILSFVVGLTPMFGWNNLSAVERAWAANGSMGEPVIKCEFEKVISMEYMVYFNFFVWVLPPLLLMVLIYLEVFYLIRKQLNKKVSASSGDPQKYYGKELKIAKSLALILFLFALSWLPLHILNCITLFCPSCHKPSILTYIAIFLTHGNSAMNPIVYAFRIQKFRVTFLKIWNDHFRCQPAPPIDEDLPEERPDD
The assay is described as follows: Adenosine A1 Receptor Functional Assay (A1GAL2). It is filed as cell-based. Conditions: CHO-K1 cells, cAMP inducible beta-galactosidase reporter, 4 nM r-PIA/1 uM Forskolin challenge. How it is done: Adenosine A1 Receptor Functional Assay (A1GAL2)
To initiate the functional assay, cryopreserved CHO-K1 cells overexpressing the human adenosine A1 receptor and containing a cAMP inducible beta-galactosidase reporter gene were thawed, centrifuged, DMSO containing media removed, and then seeded with fresh culture media into clear 384-well tissue culture treated plates (BD #353961) at a concentration of 10K cells/well. Prior to assay, these plates were cultured for two days at 37° C., 5% CO2, 90% Rh. On the day of the functional assay, culture media was removed and replaced with 45 uL assay medium (Hams/F-12 Modified (Mediatech # 10-080CV) supplemented w/0.1% BSA). Test compounds were diluted and 11 point curves created at a 1000× concentration in 100% DMSO. Immediately after addition of assay media to the cell plates, […] of the appropriate test compound antagonist or agonist control curves were added to cell plates using a Cartesian Hummingbird. Compound curves were allowed to incubate at room temperature on cell plates for approximately 15 minutes before addition of a 4 nM r-PIA (Sigma P4532)/1 uM Forskolin (Sigma F3917) agonist challenge (5 uL volume). A control curve of r-PIA in 1 uM Forskolin, a DMSO/Media control, and a single dose of Forskolin were also included on each plate. After additions, cell plates were allowed to incubate at 37° C., 5% CO2, 90% Rh for 5.5-6 hours. After incubation, media was removed, and cell plates were washed 1×50 uL with DPBS w/o Ca & Mg (Mediatech 21-031-CV).
Into dry wells, 20 uL of 1× Reporter Lysis Buffer (Promega E3971 (diluted in dH2O from 5× stock)) was added to each well and plates frozen at −20° C. overnight. For β-galactosidase enzyme calorimetric assay, plates were thawed out at room temperature and 20 μL 2× assay buffer (Promega) was added to each well. Color was allowed to develop at 37° C., 5% CO2, 90% Rh for 1-1.5 h or until reasonable signal appeared. The calorimetric reaction was stopped with the addition of 60 μL/well 1M sodium carbonate. Plates were counted at 405 nm on a SpectraMax Microplate Reader (Molecular Devices). Data was analyzed in Microsoft Excel and IC/EC50 curves were fit using a standardized macro.

The target in assay [3] is T3, human adenosine A2a receptor (Homo sapiens, UniProt P29274).
T3 construct: expressed in transfected cells; host or cells: CHO-K1
T3 sequence (P29274 whole entry): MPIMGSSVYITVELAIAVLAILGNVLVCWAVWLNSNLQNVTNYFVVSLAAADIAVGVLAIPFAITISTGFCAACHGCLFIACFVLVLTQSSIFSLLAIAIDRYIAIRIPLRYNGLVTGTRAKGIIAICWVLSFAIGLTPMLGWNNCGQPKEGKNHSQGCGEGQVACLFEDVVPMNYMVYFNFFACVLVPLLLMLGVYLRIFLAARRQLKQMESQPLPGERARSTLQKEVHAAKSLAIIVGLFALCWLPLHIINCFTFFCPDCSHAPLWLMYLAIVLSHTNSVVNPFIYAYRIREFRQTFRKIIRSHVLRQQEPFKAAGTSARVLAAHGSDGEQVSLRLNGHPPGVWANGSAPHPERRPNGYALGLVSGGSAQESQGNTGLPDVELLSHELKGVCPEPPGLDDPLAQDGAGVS
The assay is described as follows: Adenosine A2a Receptor Functional Assay (A2AGAL2). Type of assay: cell-based. The conditions noted are these: CHO-K1 cells, cAMP inducible beta-galactosidase reporter, 15 nM NECA agonist challenge. How it is done:
Adenosine A2a Receptor Functional Assay (A2AGAL2)
To initiate the functional assay, cryopreserved CHO-K1 cells overexpressing the human adenosine A2a receptor and containing a cAMP inducible beta-galactosidase reporter gene were thawed, centrifuged, DMSO containing media removed, and then seeded with fresh culture media into clear 384-well tissue culture treated plates (BD #353961) at a concentration of 10K cells/well. Prior to assay, these plates were cultured for two days at 37° C., 5% CO2, 90% Rh. On the day of the functional assay, culture media was removed and replaced with 45 uL assay medium (Hams/F-12 Modified (Mediatech # 10-080CV) supplemented w/0.1% BSA). Test compounds were diluted and 11 point curves created at a 1000× concentration in 100% DMSO. Immediately after addition of assay media to the cell plates, 50 nL of the appropriate test compound antagonist or agonist control curves were added to cell plates using a Cartesian Hummingbird. Compound curves were allowed to incubate at room temperature on cell plates for approximately 15 minutes before addition of a 15 nM NECA (Sigma E2387) agonist challenge (5 uL volume). A control curve of NECA, a DMSO/Media control, and a single dose of Forskolin (Sigma F3917) were also included on each plate. After additions, cell plates were allowed to incubate at 37° C., 5% CO2, 90% Rh for 5.5-6 hours. After incubation, media was removed, and cell plates were washed 1×50 uL with DPBS w/o Ca & Mg (Mediatech 21-031-CV). Into dry wells, 20 uL of 1× Reporter Lysis Buffer (Promega E3971 (diluted in dH2O from 5× stock)) was added to each well and plates frozen at −20° C. overnight. For β-galactosidase enzyme calorimetric assay, plates were thawed out at room temperature and 20 μL 2× assay buffer (Promega) was added to each well. Color was allowed to develop at 37° C., 5% CO2, 90% Rh for 1-1.5 h or until reasonable signal appeared. The calorimetric reaction was stopped with the addition of 60 μL/well 1M sodium carbonate. Plates were counted at 405 nm on a SpectraMax Microplate Reader (Molecular Devices). Data was analyzed in Microsoft Excel and IC/EC50 curves were fit using a standardized macro.

Where a name gives a salt, the structure may show the parent alone.

T1 sequence (P29274 whole entry): as above

A word on the Ki: it is a dissociation constant, usually derived from enzyme kinetics or from competition with a known ligand. Higher therefore signals a looser hold on the target. As to `Nc1nc(-c2cccs2)nc2sc(CN3CCOCC3)cc12` [Example 26, 6-Morpholin-4-ylmethyl-2-thiophen-2-yl-thieno[2,3-d]pyrimidin-4-ylamine], in assay [1], the Ki is 0.207 µM.
In the case of `Nc1nc(-c2ccco2)nc2sc(CN3CCCC(F)(F)C3)cc12` [Example 57, 6-(3,3-Difluoro-piperidin-1-ylmethyl)-2-furan-2-yl-thieno[2,3-d]pyrimidin-4-ylamine], the Ki in assay [2] came out at 0.294 µM; in assay [3] it was 0.00662 µM; in assay [1], 0.0084 µM.
In turn, `COCCNCc1cc2c(N)nc(-c3ccco3)nc2s1` [Example 33, 2-Furan-2-yl-6-[(2-methoxy-ethylamino)-methyl]-thieno[2,3-d]pyrimidin-4-ylamine] yielded a Ki in assay [1] of 0.216 µM.
Take `Nc1nc(-c2ccco2)nc2sc(CN3CCOCC3)cc12` [Example 42, 2-Furan-2-yl-6-morpholin-4-ylmethyl-thieno[2,3-d]pyrimidin-4-ylamine]: the Ki came to 18.2 µM in assay [2], 0.053 µM in assay [3] and 0.0881 µM in assay [1].
The matching figures for `N#Cc1cccc(-c2nc(N)c3cc(CN4CC=CCC4)sc3n2)c1` [Example 68, 3-[4-Amino-6-(3,6-dihydro-2H-pyridin-1-ylmethyl)-thieno[2,3-d]pyrimidin-2-yl]-benzonitrile]: 0.212 µM, 0.0133 µM and 0.378 µM.
The matching figures for `Nc1nc(-c2ccc(Cl)o2)nc2sc(CN3CCC(F)CC3)cc12` [Example 89, 2-(5-Chloro-furan-2-yl)-6-(4-fluoro-piperidin-1-ylmethyl)-thieno[2,3-d]pyrimidin-4-ylamine hydrochloride]: 1.08 µM, 0.0359 µM and 0.0019 µM.
For `N#Cc1cccc(-c2nc(N)c3cc(CN4C5CCC4CC5)sc3n2)c1` [Example 77, 3-[4-Amino-6-(7-aza-bicyclo[2.2.1]hept-7-ylmethyl)-thieno[2,3-d]pyrimidin-2-yl]-benzonitrile] the same measures were 2.17 µM, 0.095 µM and 0.0749 µM.
`Nc1nc(-c2ccco2)nc2sc(CN3CCC(F)(F)CC3)cc12` [Example 56, 6-(4,4-Difluoro-piperidin-1-ylmethyl)-2-furan-2-yl-thieno[2,3-d]pyrimidin-4-ylamine]: the Ki in assay [2] came to 2.23 µM; in assay [3] it was 0.0487 µM; in assay [1], 0.021 µM.
For `Cc1ccc(-c2nc(N)c3cc(CN4CCCCC4)sc3n2)o1` [Example 34, 2-(5-Methyl-furan-2-yl)-6-piperidin-1-ylmethyl-thieno[2,3-d]pyrimidin-4-ylamine] the same measures were 0.606 µM, 0.0284 µM and 0.0187 µM.
In assay [1], `Cc1ccc(-c2nc(N)c3cc(CN4CCC(O)C4)sc3n2)o1` (centres unmarked) [Example 40, 1-[4-Amino-2-(5-methyl-furan-2-yl)-thieno[2,3-d]pyrimidin-6-ylmethyl]-pyrrolidin-3-ol] showed a Ki of 0.375 µM.
`Nc1nc(-c2cccc(F)c2)nc2sc(CN3CCSCC3)cc12` [Example 58, 2-(3-Fluoro-phenyl)-6-thiomorpholin-4-ylmethyl-thieno[2,3-d]pyrimidin-4-ylamine]: the Ki in assay [2] came out at 0.331 µM; in assay [3] it was 0.0736 µM.
For `Nc1nc(-c2cccc(F)c2)nc2sc(CN3CCOCC3)cc12` [Example 61, 2-(3-Fluoro-phenyl)-6-morpholin-4-ylmethyl-thieno[2,3-d]pyrimidin-4-ylamine] the same measures were 0.616 µM and 0.123 µM.
For the compound `Cc1ccc(-c2nc(N)c3cc(CN4CCN(C)CC4)sc3n2)o1` [Example 36, 2-(5-Methyl-furan-2-yl)-6-(4-methyl-piperazin-1-ylmethyl)-thieno[2,3-d]pyrimidin-4-ylamine], in assay [1], the Ki came out at 0.371 µM.
`N#Cc1ccc(-c2nc(N)c3cc(CN4CCC(F)CC4)sc3n2)s1` [Example 72, 5-[4-Amino-6-(4-fluoro-piperidin-1-ylmethyl)-thieno[2,3-d]pyrimidin-2-yl]-thiophene-2-carbonitrile]: the Ki in assay [2] amounted to 1.91 µM; in assay [3], 0.0913 µM.
For `Nc1nc(-c2ccc(C(F)F)o2)nc2sc(CN3CCC(F)(F)CC3)cc12` [Example 99, 2-(5-Difluoromethyl-furan-2-yl)-6-(4,4-difluoro-piperidin-1-ylmethyl)-thieno[2,3-d]pyrimidin-4-ylamine], the Ki turned out to be 17.8 µM in assay [2] and 0.61 µM in assay [3].
With `CCc1ccc(-c2nc(N)c3cc(CN4[C@H](C)CCC[C@@H]4C)sc3n2)o1` [Example 11, 6-(2,6-Dimethyl-piperidin-1-ylmethyl)-2-(5-ethyl-furan-2-yl)-thieno[2,3-d]pyrimidin-4-ylamine], the Ki in assay [2] came to 0.194 µM; in assay [3], 0.0249 µM.
The matching figures for `N#Cc1cncc(-c2nc(N)c3cc(CN4CCC(F)CC4)sc3n2)c1` [Example 87, 5-[4-Amino-6-(4-fluoro-piperidin-1-ylmethyl)-thieno[2,3-d]pyrimidin-2-yl]-nicotinonitrile]: above 10 µM and 6.62 µM.
For `Nc1nc(-c2cccc(O)c2)nc2sc(CN3CCOCC3)cc12` [Example 106, 3-(4-Amino-6-morpholin-4-ylmethyl-thieno[2,3-d]pyrimidin-2-yl)-phenol] the same measures were 2.44 µM and 0.816 µM.
The matching figures for `C[C@@H]1CCC[C@H](C)N1Cc1cc2c(N)nc(-c3ccon3)nc2s1` [Example 18, 6-(2,6-Dimethyl-piperidin-1-ylmethyl)-2-isoxazol-3-yl-thieno[2,3-d]pyrimidin-4-ylamine]: 0.504 µM and 0.13 µM.

The record behind these values is patent US20100093702A1, “METHYLENE AMINES OF THIENO[2,3-d]PYRIMIDINE AND THEIR USE AS ADENOSINE A2a RECEPTOR ANTAGONISTS” (priority 2008, published 2010).
